Reference: US20250353841A1 (BIOGEN MA INC., priority 2022, published 2025)

Tested on: mutant Huntington (HTT) protein
Test: HTT Mutant HTRF iPSC assay (mHTT protein lowering)
Assay type: cell-based
Details: human iPSC derived from a HTT patient with a poly-Q49 mutation

Compound: CCc1nc(C)cn2cc(-c3cc(F)c4nc(C5CCN(C6CC6)CC5)cn4c3)cc12 [Compound 172, 2-(1-cyclopropylpiperidin-4-yl)-6-(1-ethyl-3-methylpyrrolo[1,2-a]pyrazin-7-yl)-8-fluoroimidazo[1,2-a]pyridine]
- IC50: 100 to 1000 nM

Compound: CCN1CCC(c2cn3cc(-c4cc(C)c5nn(C)cc5n4)cc(F)c3n2)CC1 [Compound 173, 5-(2-(1-ethylpiperidin-4-yl)-8-fluoroimidazo[1,2-a]pyridin-6-yl)-2,7-dimethyl-2H-pyrazolo[4,3-b]pyridine]
- IC50: 100 to 1000 nM

Compound: Cc1cn2nc(-c3cc(F)c4nc(C5CCN(CC(F)F)CC5)cn4c3)cc(C)c2n1 [Compound 174, 6-(2-(1-(2,2-difluoroethyl)piperidin-4-yl)-8-fluoroimidazo[1,2-a]pyridin-6-yl)-2,8-dimethylimidazo[1,2-b]pyridazine]
- IC50: 100 to 1000 nM

Compound: CCc1nc(C)cn2cc(-c3cc(F)c4nc(C5CCN(CC)CC5)cn4c3)cc12 [Compound 175, 6-(1-ethyl-3-methylpyrrolo[1,2-a]pyrazin-7-yl)-2-(1-ethylpiperidin-4-yl)-8-fluoroimidazo[1,2-a]pyridine]
- IC50: 100 to 1000 nM

Compound: Cc1cn2nc(-c3cc(F)c4nc([C@H]5C[C@H](CN(C)C)C5)cn4c3)cc(C)c2n1 [Compound 181, 1-((1r,3r)-3-(6-(2,8-dimethylimidazo[1,2-b]pyridazin-6-yl)-8-fluoroimidazo[1,2-a]pyridin-2-yl)cyclobutyl)-N,N-dimethylmethanamine]
- IC50: < 100 nM

Compound: Cc1cn2nc(-c3cc(F)c4nc([C@H]5C[C@@H](CN(C)C)C5)cn4c3)cc(C)c2n1 [Compound 182, 1-((1s,3s)-3-(6-(2,8-dimethylimidazo[1,2-b]pyridazin-6-yl)-8-fluoroimidazo[1,2-a]pyridin-2-yl)cyclobutyl)-N,N-dimethylmethanamine]
- IC50: < 100 nM

Compound: Cc1cn2nc(-c3cc(F)c4nc(C5C6CCC5CNC6)cn4c3)cc(C)c2n1 (stereo not shown) [Compound 183, 6-(2-(3-azabicyclo[3.2.1]]octan-8-yl)-8-fluoroimidazo[1,2-a]pyridin-6-yl)-2,8-dimethylimidazo[1,2-blpyridazine]
- IC50: 100 to 1000 nM

Compound: Cc1cn2nc(-c3cc(F)c4nc(C56CC(C7CNC7)(C5)C6)cn4c3)cc(C)c2n1 [Compound 184]
- IC50: 100 to 1000 nM

Compound: Cc1cn2nc(-c3cc(F)c4nc([C@H]5[C@@H]6CN(C)C[C@@H]65)cn4c3)cc(C)c2n1 [Compound 185, 6-[8-fluoro-2-[(1S,5R)-3-methyl-3-azabicyclo[3.1.0]hexan-6-yl]imidazo[1,2-a]pyridin-6-yl]-2,8-dimethyl-imidazo[1,2-b]pyridazine]
- IC50: < 100 nM

Compound: COCCN1C[C@@H]2[C@H](C1)[C@H]2c1cn2cc(-c3cc(C)c4nc(C)cn4n3)cc(F)c2n1 [Compound 187, 6-(8-fluoro-2-((1R,5S,6r)-3-(2-methoxyethyl)-3-azabicyclo[3.1.0]hexan-6-yl)imidazo[1,2-a]pyridin-6-yl)-2,8-dimethylimidazo[1,2-b]pyridazine]
- IC50: < 100 nM

Compound: CCN1C[C@@H]2[C@H](C1)[C@H]2c1cn2cc(-c3cc(C)c4nc(C)cn4n3)cc(F)c2n1 [Compound 188, 6-(2-((1R,5S,6r)-3-ethyl-3-azabicyclo[3.1.0]hexan-6-yl)-8-fluoroimidazo[1,2-a]pyridin-6-yl)-2,8-dimethylimidazo[1,2-b]pyridazine]
- IC50: 100 to 1000 nM

Compound: Cc1cn2nc(-c3cc(F)c4nc([C@H]5C[C@]6(CCNC6)C5)cn4c3)cc(C)c2n1 [Compound 191, 6-(8-fluoro-2-((2s,4s)-6-azaspiro[3.4]octan-2-yl)imidazo[1,2-a]pyridin-6-yl)-2,8-dimethylimidazo[1,2-b]pyridazine]
- IC50: < 100 nM

Compound: Cc1cn2nc(-c3cc(F)c4nc(C5CCN(C6CCOC6)CC5)cn4c3)cc(C)c2n1 (stereo not shown) [Compound 192, 6-(8-fluoro-2-(1-(tetrahydrofuran-3-yl)piperidin-4-yl)imidazo[1,2-a]pyridin-6-yl)-2,8-dimethylimidazo[1,2-b]pyridazine]
- IC50: < 100 nM

Compound: Cc1cn2nc(-c3cc(F)c4nc([C@H]5C[C@@]6(CCNC6)C5)cn4c3)cc(C)c2n1 [Compound 193, 6-(8-fluoro-2-((2r,4r)-6-azaspiro[3.4]octan-2-yl)imidazo[1,2-a]pyridin-6-yl)-2,8-dimethylimidazo[1,2-b]pyridazine]
- IC50: < 100 nM

Compound: Cc1cn2nc(-c3cc(F)c4nc(C5CCNCC5)cn4c3)cc(C3CC3)c2n1 [Compound 194, 8-cyclopropyl-6-(8-fluoro-2-(piperidin-4-yl)imidazo[1,2-a]pyridin-6-yl)-2-methylimidazo[1,2-b]pyridazine]
- IC50: < 100 nM

Compound: Cc1cn2nc(-c3cc(F)c4nc(C5CCNCC5)cn4c3)cc2c(C)n1 [Compound 195, 2-(8-fluoro-2-(piperidin-4-yl)imidazo[1,2-a]pyridin-6-yl)-4,6-dimethylpyrazolo[1,5-a]pyrazine]
- IC50: < 100 nM

Compound: Cc1cn2nc(-c3cc(F)c4nc(C5CC=CC5)cn4c3)cc(C)c2n1 [Compound 196, 6-(2-cyclopent-3-en-1-yl-8-fluoro-imidazo[1,2-a]pyridin-6-yl)-2,8-dimethyl-imidazo[1,2-b]pyridazine]
- IC50: 100 to 1000 nM

Compound: CCc1cc(-c2cc(F)c3nc(C4CCNCC4)cn3c2)nn2cc(C)nc12 [Compound 197, 8-ethyl-6-(8-fluoro-2-(piperidin-4-yl)imidazo[1,2-a]pyridin-6-yl)-2-methylimidazo[1,2-b]pyridazine]
- IC50: < 100 nM

Compound: Fc1cc(-c2ncc3cccn3n2)cn2cc(C3CCNCC3)nc12 [Compound 198, 2-(8-fluoro-2-(piperidin-4-yl)imidazo[1,2-a]pyridin-6-yl)pyrrolo[2,1-f][1,2,4]triazine]
- IC50: 100 to 1000 nM

Compound: Fc1cc(-c2ccn3nc(Br)cc3n2)cn2cc(C3CCNCC3)nc12 [Compound 199, 2-bromo-5-(8-fluoro-2-(piperidin-4-yl)imidazo[1,2-a]pyridin-6-yl)pyrazolo[1,5-a]pyrimidine]
- IC50: 100 to 1000 nM

Compound: Cc1cc2nc(-c3cc(F)c4nc(C5CCNCC5)cn4c3)ccn2n1 [Compound 200, 5-(8-fluoro-2-(piperidin-4-yl)imidazo[1,2-a]pyridin-6-yl)-2-methylpyrazolo[1,5-a]pyrimidine]
- IC50: < 100 nM

Compound: Cc1cc2nc(-c3cc(F)c4nc(C5CCNCC5)cn4c3)ncc2s1 [Compound 201, 2-(8-fluoro-2-(piperidin-4-yl)imidazo[1,2-a]pyridin-6-yl)-6-methylthieno[3,2-d]pyrimidine]
- IC50: 100 to 1000 nM

Compound: Cc1cn2nc(-c3cc(F)c4nc([C@H]5C[C@@]6(CCN(C)C6)C5)cn4c3)cc(C)c2n1 [Compound 202, 6-(8-fluoro-2-((2r,4r)-6-methyl-6-azaspiro[3.4]octan-2-yl)imidazo[1,2-a]pyridin-6-yl)-2,8-dimethylimidazo[1,2-b]pyridazine]
- IC50: < 100 nM

Compound: Cc1cn2nc(-c3cc(F)c4nc([C@H]5C[C@]6(CCN(C)C6)C5)cn4c3)cc(C)c2n1 [Compound 203, 6-(8-fluoro-2-((2s,4s)-6-methyl-6-azaspiro[3.4]octan-2-yl)imidazo[1,2-a]pyridin-6-yl)-2,8-dimethylimidazo[1,2-b]pyridazine]
- IC50: < 100 nM

Compound: Cc1cn2nc(-c3cc(F)c4nc([C@H]5[C@@H]6CN(C7CC7)C[C@@H]65)cn4c3)cc(C)c2n1 [Compound 204, 6-(2-((1R,5S,6r)-3-cyclopropyl-3-azabicyclo[3.1.0]hexan-6-yl)-8-fluoroimidazo[1,2-a]pyridin-6-yl)-2,8-dimethylimidazo[1,2-b]pyridazine]
- IC50: 100 to 1000 nM

Compound: COC1CC1N1CCC(c2cn3cc(-c4cc(C)c5nc(C)cn5n4)cc(F)c3n2)CC1 (stereo not shown) [Compound 205, 6-(8-fluoro-2-(1-(2-methoxycyclopropyl)piperidin-4-yl)imidazo[1,2-a]pyridin-6-yl)-2,8-dimethylimidazo[1,2-b]pyridazine]
- IC50: 100 to 1000 nM

Compound: Cc1cn2nc(-c3cc(F)c4nc(C5CC6CCC(C5)N6)cn4c3)cc(C)c2n1 (stereo not shown) [Compound 206]
- IC50: < 100 nM

Compound: [2H]C1(N2CCC(c3cn4cc(-c5cc(C)c6nc(C)cn6n5)cc(F)c4n3)CC2)CC1 [Compound 207, 6-(2-(1-(cyclopropyl-1-d)piperidin-4-yl)-8-fluoroimidazo[1,2-a]pyridin-6-yl)-2,8-dimethylimidazo[1,2-b]pyridazine]
- IC50: < 100 nM

Compound: Cc1cn2nc(-c3cc(F)c4nc(C56CC(N(C)C7CC7)(C5)C6)cn4c3)cc(C)c2n1 [Compound 208, N-cyclopropyl-3-(6-(2,8-dimethylimidazo[1,2-b]pyridazin-6-yl)-8-fluoroimidazo[1,2-a]pyridin-2-yl)-N-methylbicyclo[1.1.1] pentan-1-amine]
- IC50: 100 to 1000 nM

Compound: Cc1cn2nc(-c3cc(F)c4nc(C5CCN(C6COC6(C)C)CC5)cn4c3)cc(C)c2n1 (stereo not shown) [Compound 210, 6-(2-(1-(2,2-dimethyloxetan-3-yl)piperidin-4-yl)-8-fluoroimidazo[1,2-a]pyridin-6-yl)-2,8-dimethylimidazo[1,2-b]pyridazine]
- IC50: 100 to 1000 nM

Compound: Cc1cn2nc(-c3cc(F)c4nc([C@H]5[C@@H]6CN(C7CCC7)C[C@@H]65)cn4c3)cc(C)c2n1 [Compound 211, 6-(2-((1R,5S,6r)-3-cyclobutyl-3-azabicyclo[3.1.0]hexan-6-yl)-8-fluoroimidazo[1,2-a]pyridin-6-yl)-2,8-dimethylimidazo[1,2-b]pyridazine]
- IC50: < 100 nM

Compound: Cc1cn2nc(-c3cc(F)c4nc([C@H]5[C@@H]6CN(CC7CC7)C[C@@H]65)cn4c3)cc(C)c2n1 [Compound 212, 6-(2-((1R,5S,6r)-3-(cyclopropylmethyl)-3-azabicyclo[3.1.0]hexan-6-yl)-8-fluoroimidazo[1,2-a]pyridin-6-yl)-2,8-dimethylimidazo[1,2-b]pyridazine]
- IC50: < 100 nM

Compound: Cc1cn2nc(-c3cc(F)c4nc(C5CCN(C6COC6C)CC5)cn4c3)cc(C)c2n1 (stereo not shown) [Compound 213, 6-(8-fluoro-2-(1-(2-methyloxetan-3-yl)piperidin-4-yl)imidazo[1,2-a]pyridin-6-yl)-2,8-dimethylimidazo[1,2-b]pyridazine]
- IC50: 100 to 1000 nM

Compound: Cc1cn2nc(-c3cc(F)c4nc([C@H]5C[C@@H](C)N[C@@H](C)C5)cn4c3)cc(C)c2n1 [Compound 215, 6-(2-((2S,4r,6R)-2,6-dimethylpiperidin-4-yl)-8-fluoroimidazo[1,2-a]pyridin-6-yl)-2,8-dimethylimidazo[1,2-b]pyridazine]
- IC50: < 100 nM
